Columns and labels:
[1] = biological target: T1, human ENT1 (Homo sapiens, UniProt Q99808); test: Uridine transport inhibition assay, ENT1-mediated uptake in MDCKII cells; assay type: cell-based; conditions: MDCKIIENT1-LV cells, probe uridine 1 μM, pre-incubation 30 min, incubation 1 min
T1 construct: JAR cells expressing ENT1 were purchased from ATCC; host or cells: JAR cells
T1 sequence (Q99808 1-456): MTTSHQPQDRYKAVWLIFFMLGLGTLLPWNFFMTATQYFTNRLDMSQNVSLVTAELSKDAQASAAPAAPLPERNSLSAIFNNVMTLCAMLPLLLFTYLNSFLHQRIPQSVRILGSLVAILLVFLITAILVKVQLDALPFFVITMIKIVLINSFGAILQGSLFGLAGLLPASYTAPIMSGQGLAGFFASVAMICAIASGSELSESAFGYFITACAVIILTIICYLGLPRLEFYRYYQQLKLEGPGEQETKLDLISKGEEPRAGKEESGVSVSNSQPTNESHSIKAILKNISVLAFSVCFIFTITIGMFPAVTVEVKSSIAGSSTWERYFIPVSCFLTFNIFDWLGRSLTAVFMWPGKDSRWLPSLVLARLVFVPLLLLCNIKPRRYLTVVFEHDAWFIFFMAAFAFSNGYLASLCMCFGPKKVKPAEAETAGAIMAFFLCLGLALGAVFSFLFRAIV
Method: The goal of this study was to determine the potency and selectivity of ENT1 inhibitors by measuring ENT1 and ENT2-mediated transport using an in vitro cellular uptake assay.
Human ENT1 and ENT2 transporters were stably expressed in Madin-Darby Canine Kidney II (MDCKII) cells via transduction. Cell lines overexpressing the relevant ENT1 or ENT2 molecules were preincubated with a dose range of the relevant compound for 30 minutes before introduction of the specific substrate at the concentration indicated in the Table assay parameters below. The transporter assay was conducted for the time specified in the Table assay parameters before the specific uptake of the substrate into the cells was quantified. Specific uptake was determined by comparing the uptake from the cells treated with the relevant compounds and the uptake by cells not overexpressing the transporter in question.
Specific uptake for each concentration of the test sample was normalized to the DMSO control value to generate a relative accumulation value (or relative transporter activity). Data were plotted against the log molar concentration of the test reagent used. IC50 values were generated with Prism version 9.4.1 and the following function: log(inhibitor) vs. response—Variable slope (four parameters).

[2] = tested on: stimulated primary human T cells; test: T cell proliferation assay, Condition B (X-VIVO15, 2% HSA and 0.1% AAG); assay type: cell-based; conditions: Homo sapiens, T-cell, 96 h; Condition B: X-VIVO15 medium containing HSA and α1-Acid Glycoprotein; anti-CD3/anti-CD28 beads, ATP, 4 days; CFSE-lo T cells
Procedure, shortened: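 CFSE-labelled CD3+ T cells from healthy donors (2×10^4/well) in X-VIVO15 with 2% HSA and 0.1% AAG were stimulated with anti-CD3/CD28 beads. After 30 min pre-incubation with inhibitor, ATP was added and cells were cultured 4 days at 37° C. Flow cytometry gave % CFSE^lo cells, with IC50/IC90 and pICF from curve fits.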

**Q.** With C[C@H]1O[C@@H](n2c(NC3CCOCC3)nc3c(OCc4ccc(C#N)cc4)ncnc32)[C@H](O)[C@@H]1O [Compound 73] as the compound, how does the IC50 [1] read?
**A.** 0.1 to 2 nM

**Q.** What about the IC50 [2] of the same compound?
**A.** 20 to 500 nM

**Q.** Which results are given for C[C@H]1O[C@@H](n2c(N[C@H]3CCC(F)(F)C3)nc3c(OCc4ccc(C#N)cc4)ncnc32)[C@H](O)[C@@H]1O [Compound 82]?
**A.** IC50 [1]: 0.1 to 2 nM; IC50 [2]: 20 to 500 nM

**Q.** Which results are given for C[C@H]1O[C@@H](n2c(NC3CCOCC3)nc3c(OCc4ccc(OC(F)F)nc4)ncnc32)[C@H](O)[C@@H]1O [Compound 75]?
**A.** IC50 [1]: 0.1 to 2 nM; IC50 [2]: 20 to 500 nM

**Q.** Which IC50 [1] does the source give for C[C@H]1O[C@@H](n2c(NC3CCCC3)nc3c(OCc4ccc([N+](=O)[O-])cc4)ncnc32)[C@H](O)[C@@H]1O [Compound 6] here?
**A.** 0.1 to 2 nM

**Q.** What about the IC50 [2] of the same compound?
**A.** 1 to 20 nM

**Q.** How did the IC50 [1] turn out when C[C@H]1O[C@@H](n2cnc3c(OCc4ccc([N+](=O)[O-])cc4)ncnc32)[C@H](O)[C@@H]1O [Compound 166] was run?
**A.** 0.1 to 2 nM

**Q.** What about the IC50 [2] of the same compound?
**A.** 20 to 500 nM

**Q.** How did the IC50 [1] turn out when C[C@H]1O[C@@H](n2cnc3c(N4CCc5ccc([N+](=O)[O-])cc5C4)ncnc32)[C@H](O)[C@@H]1O [Compound 151] was run?
**A.** 0.1 to 2 nM

**Q.** What about the IC50 [2] of the same compound?
**A.** 20 to 500 nM

**Q.** Which IC50 [1] does the source give for C[C@H]1O[C@@H](n2cnc3c(OCc4ccc(OC(F)F)cc4)ncnc32)[C@H](O)[C@@H]1O [Compound 173] here?
**A.** 0.1 to 2 nM

**Q.** What about the IC50 [2] of the same compound?
**A.** 20 to 500 nM

**Q.** Which IC50 [1] does the source give for C[C@H]1O[C@@H](n2c(NC3CCC(O)CC3)nc3c(OCc4ccc([N+](=O)[O-])cc4)ncnc32)[C@H](O)[C@@H]1O (some centres unmarked) [Compound 28] here?
**A.** 0.1 to 2 nM

**Q.** And the IC50 [2]?
**A.** 1 to 20 nM

**Q.** For C[C@H]1O[C@@H](n2cnc3c(SCc4ccc([N+](=O)[O-])cc4)ncnc32)[C@H](O)[C@@H]1O [Compound 147], which IC50 [1] is on record?
**A.** < 0.1 nM

**Q.** And the IC50 [2]?
**A.** 20 to 500 nM

**Q.** How did the IC50 [1] turn out when OCCOC[C@H]1O[C@@H](n2cnc3c(OCc4ccc(OC(F)(F)F)cc4)ncnc32)[C@H](O)[C@@H]1O [Compound 175] was run?
**A.** 0.1 to 2 nM

**Q.** What about the IC50 [2] of the same compound?
**A.** 20 to 500 nM

Source: patent publication US20260184712A1, “Heterocyclic Compounds as ENT Inhibitors and Compounds for Use in the Treatment of Cancers” (iTeos Belgium SA, priority 2022, published 2026)
